Results taken from patent US20110251379A1, “COMPOUNDS USEFUL FOR TREATING NEURODEGENERATIVE DISORDERS” (Satori Pharmaceuticals, Inc., priority 2010, published 2011).
Where two headings read alike, the source gives them in different places.

What was measured:
Assay type in all cases: cell-based
[1] = tested on: Aβ-40; assay: MSD Human (6E10) Ab 3-PLEX elisa, conditioned media of 2B7 cells: Aβ-40; settings: Aβ-40 (superscript b)
Protocol: (§1) Assays were conducted to determine the ability of a Compound of Formula I to modulate […], and Aβ-38.
(§2) Plates with capture antibodies were blocked for 1-2 hours at room temperature with 150 μL of the manufactures blocking reagent.
(§3) Conditioned Media: • Cultured 2B7 cells in 96 well plate with 250 uL of media per well until confluent; • Prepared serial dilutions of compounds in DMSO at 100× the final desired concentration; • Washed wells with 2B7 cells 1× with 250 uL of media; • Diluted DMSO stocks 1:100 into media: • Added 250 μL of media containing compounds (1% DMSO) to wells with 2B7 cells for 5 hours at 37° C.
(§4) Elisa Sample Prep: • Diluted conditioned media: 1 part media with 1% DMSO and 1 part blocking buffer; • 150 μL of the 250 μL of conditioned media were used.
(§5) […] CURVE SAMPLE PREP: Prepared per manufacturer's protocol (see above) • Seven point standard curve samples were prepared that contained Aβ-42, Aβ-40, and Aβ-38. The highest concentration of Aβ-42 and Aβ-3-38 was 3,000 pg/mL and the highest concentration of Aβ-40 was 10,000 pg/mL. Subsequent serial dilutions were 1:3 and the final composition of each sample was 1 part blocking buffer and 1 part cell medium containing 1% DMSO.
(§6) Overnight Sample Incubation: • Blocked plates are washed 5× with MSD wash buffer with a plate washer • 25 uL of detection antibody and blocker G reagent in MSD blocking solution is added • 25 uL of samples (1 part conditioned media containing 1% DMSO and 1 part MSD blocking buffer) are then added. • plates are incubated overnight at 4 degrees C. or 2 hours at room temp
(§7) Final Wash and Readout: • Wash wells 5× with MSD wash buffer • Added 150 μL 2×MSD read buffer • Read with MSD imager.
(§8) A-Beta peptide levels for each peptide are calculated from the standard curve using the MSD software provided with the MSD 2400 Imager. Percent vehicle values for each compound dosage were then calculated and fit to a 4 parameter curve generating IC50 values.

[2] = tested on: Aβ-42; assay: MSD Human (6E10) Ab 3-PLEX elisa, conditioned media of 2B7 cells: Aβ-42; settings: Aβ-42 (superscript c)
Protocol: as §1, §2, §3, §4, §5, §6, §7, §8

[3] = tested on: Aβ-38; assay: MSD Human (6E10) Ab 3-PLEX elisa, conditioned media of 2B7 cells: Aβ-38; settings: Aβ-38 (superscript a)
Protocol: as §1, §2, §3, §4, §5, §6, §7, §8

[4] = tested on: amyloid-beta (1-42) peptide; assay: ELISA assay of amyloid-beta (1-42) in conditioned media of 2B7 cells; settings: for IC50: Aβ-42, 2B7 cells, 5 hours, read-out: IC50 range; for inhibition at 10 µM: Aβ-42, 10 umol/L; for inhibition at 10 µM / inhibition at 100 µM / inhibition at 20 µM: read-out: % Inhibition (range); for inhibition at 100 µM: Aβ-42, 100 umol/L
How it was run: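 2B7 cells were treated with compounds for 5 hours at 37° C in media with 1% DMSO. Conditioned media, diluted 1:2 in blocking buffer, went into a sandwich ELISA with 6E10 capture and an HRP-labelled detection antibody, read by TMB at 450 nm. Values came from an Aβ peptide standard curve.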

[5] = Homo sapiens, read-out: IC50 range

| SMILES | IC50 [4] [nM] | IC50 ([4]; 5 h) [nM] | also measured |
| --- | --- | --- | --- |
| C[C@@H]1CC(CNC(C(=O)O)C(F)(F)F)OC2[C@H]1[C@@]1(C)CC[C@@]34C[C@@]35CC[C@H](O[C@H]3CN(C(=O)CC6CC6)CCO3)C(C)(C)[C@@H]5CCC4[C@]1(C)[C@H]2O (some centres unmarked) |  |  | IC50 [1, 5]: 1000 to 10000 nM; IC50 [2, 5]: 1000 to 10000 nM |
| CC(C)CC(=O)OC(C1CC(C)C2C(O1)C(O)C1(C)C3CCC4C(C)(C)C(OC5CN(C6COC6)CCO5)CCC45CC35CCC21C)C(C)(C)O (centres unmarked) |  |  | IC50 range (nM) [3]: A- B; IC50 ([3]; read-out: 50% reduction value): 1000 to 10000 nM; IC50 ([1]; read-out: 50% reduction value): 1000 to 10000 nM; IC50 ([1]; read-out: IC50 range): 1000 to 10000 nM; IC50 ([2]; read-out: 50% reduction value): 1000 to 10000 nM; IC50 ([2]; read-out: IC50 range): 1000 to 10000 nM |
| CC(=O)N(CC1CC(C)C2C(O1)C(O)C1(C)C3CCC4C(C)(C)C(O)CCC45CC35CCC21C)C(C)c1ccccc1 (centres unmarked) [drawing 844] | < 10000 |  |  |
| CC(=O)N(CC1CC(C)C2C(O1)C(O)C1(C)C3CCC4C(C)(C)C(O)CCC45CC35CCC21C)C(C)C (centres unmarked) [drawing 845] | 1000 to 10000 |  |  |
| CC(=O)N(CC1CC(C)C2C(O1)C(O)C1(C)C3CCC4C(C)(C)C(O)CCC45CC35CCC21C)C(C)c1ccccc1 (centres unmarked) [drawing 851] | 1000 to 10000 |  |  |
| CC1CC(C(OC(=O)C2CC2)C(C)(C)O)OC2C1C1(C)CCC34CC35CCC(O)C(C)(C)C5CCC4C1(C)C2O (centres unmarked) [drawing 853] | ≤ 1000 |  |  |
| CC(=O)N(Cc1cc(F)cc(F)c1)CC1CC(C)C2C(O1)C(O)C1(C)C3CCC4C(C)(C)C(OC(=O)C5CNC5)CCC45CC35CCC21C (centres unmarked) [drawing 856] | 1000 to 10000 |  |  |
| CC1CC(C(OC(=O)C2CCC2)C(C)(C)O)OC2C1C1(C)CCC34CC35CCC(O)C(C)(C)C5CCC4C1(C)C2O (centres unmarked) [drawing 859] | ≤ 1000 |  |  |
| CC1CC(C(OC(=O)N(C)C)C(C)(C)O)OC2C1C1(C)CCC34CC35CCC(O)C(C)(C)C5CCC4C1(C)C2O (centres unmarked) [drawing 862] | > 10000 |  |  |
| CC1CC(C(=O)C(C)(C)O)OC2C1C1(C)CCC34CC35CCC(O)C(C)(C)C5CCC4C1(C)C2O (centres unmarked) [drawing 864] | > 10000 |  |  |
| CC1CC(C(OC(=O)C2CCC2)C(C)(C)O)OC2C1C1(C)CCC34CC35CCC(OC3CN(C6COC6)CCO3)C(C)(C)C5CCC4C1(C)C2O (centres unmarked) [drawing 865] | > 10000 |  |  |
| CC(C)C(=O)OC(C1CC(C)C2C(O1)C(O)C1(C)C3CCC4C(C)(C)C(OC5CN(C6COC6)CCO5)CCC45CC35CCC21C)C(C)(C)O (centres unmarked) [drawing 866] | > 10000 |  |  |
| C[C@@H]1C[C@H]([C@H](O)C(C)(C)O)OC2C1[C@@]1(C)CC[C@@]34C[C@@]35CC[C@H](O)C(C)(C)[C@@H]5CC[C@H]4[C@]1(C)[C@H]2O (some centres unmarked) [drawing 887] | 1000 to 10000 |  | inhibition at 10 µM [4]: < 25% |
| C[C@@H]1C[C@H]([C@H](O)C(C)(C)O)OC2C1[C@@]1(C)CC[C@@]34C[C@@]35CC[C@H](O)C(C)(C)[C@@H]5CC[C@H]4[C@]1(C)[C@H]2O (some centres unmarked) [drawing 888] |  |  | inhibition at 100 µM [4]: 25 to 75% |
| C[C@@H]1C[C@H]([C@H](O)C(C)(C)O)OC2C1[C@@]1(C)CC[C@@]34C[C@@]35CC[C@H](O)C(C)(C)[C@@H]5CC[C@H]4[C@]1(C)[C@H]2O (some centres unmarked) [drawing 889] | > 10000 |  | inhibition at 20 µM ([4]; Aβ-42, 20 umol/L): < 25% |
| C[C@@H]1C[C@H]([C@H](O)C(C)(C)O)OC2C1[C@@]1(C)CC[C@@]34C[C@@]35CC[C@H](O)C(C)(C)[C@@H]5CC[C@H]4[C@]1(C)[C@H]2O (some centres unmarked) [drawing 890] |  |  | % Inhibition (range) ([4]; Aβ-42, 20 umol/L): E (% inhibition of 25-75%) |

| SMILES | IC50 [4] [nM] | IC50 ([4]; 5 h) [nM] | also measured |
| --- | --- | --- | --- |
| CC(=O)O[C@@H]([C@H]1C[C@@H](C)C2C(O1)[C@H](O)[C@@]1(C)[C@@H]3CC[C@H]4C(C)(C)[C@@H](O[C@@H]5OC[C@@H](O)[C@H](O)[C@H]5O)CC[C@@]45C[C@@]35CC[C@]21C)C(C)(C)O (some centres unmarked) [drawing 891] |  | ≤ 1000 |  |
| C[C@@H]1C[C@H]([C@H](O)C(C)(C)O)OC2C(=O)[C@@]3(C)[C@@H]4CC[C@H]5C(C)(C)[C@@H](O)CC[C@@]56C[C@@]46CC[C@]3(C)C21 (some centres unmarked) [drawing 893] |  |  | inhibition at 10 µM [4]: < 25% |
| C[C@@H]1C[C@H]([C@H](O)C(C)(C)O)OC2C(=O)[C@@]3(C)[C@@H]4CC[C@H]5C(C)(C)[C@@H](O)CC[C@@]56C[C@@]46CC[C@]3(C)C21 (some centres unmarked) [drawing 894] |  |  | inhibition at 100 µM [4]: 25 to 75% |
| CC(=O)O[C@@H]([C@H]1C[C@@H](C)C2C(O1)C(=O)[C@@]1(C)[C@@H]3CC[C@H]4C(C)(C)[C@@H](O[C@@H]5OC[C@@H](O)[C@H](O)[C@H]5O)CC[C@@]45C[C@@]35CC[C@]21C)C(C)(C)O (some centres unmarked) [drawing 895] |  | > 1000 |  |
| CC(=O)O[C@@H]([C@H]1C[C@@H](C)C2C(O1)[C@H](O)[C@@]1(C)[C@@H]3CC[C@H]4C(C)(C)[C@@H](O)CC[C@@]45C[C@@]35CC[C@]21C)C(C)(C)O (some centres unmarked) [drawing 897] |  | ≤ 1000 |  |
| CCC(=O)O[C@@H]([C@H]1C[C@@H](C)C2C(O1)[C@H](O)[C@@]1(C)[C@@H]3CC[C@H]4C(C)(C)[C@@H](O)CC[C@@]45C[C@@]35CC[C@]21C)C(C)(C)O (some centres unmarked) [drawing 908] |  | > 10000 | inhibition at 100 µM [4]: 25 to 75% |
| CC(=O)OCC1C[C@@H](C)C2C(O1)[C@H](O)[C@@]1(C)[C@@H]3CC[C@H]4C(C)(C)[C@@H](O)CC[C@@]45C[C@@]35CC[C@]21C (some centres unmarked) [drawing 923] |  |  | inhibition at 20 µM ([4]; Aβ-42, 20 umol/L): < 25% |
| CC(=O)O[C@@H]([C@H]1C[C@@H](C)C2C(O1)[C@H](O)[C@@]1(C)[C@@H]3CC[C@H]4C(C)(C)[C@H](O)CC[C@@]45C[C@@]35CC[C@]21C)C(C)(C)O (some centres unmarked) [drawing 925] |  | ≤ 1000 |  |
| CO[C@@H]1[C@@H](OC)[C@H](O[C@H]2CC[C@]34C[C@]35CC[C@]3(C)C6C(O[C@@H]([C@H](OC(C)=O)C(C)(C)O)C[C@H]6C)[C@H](O)[C@@]3(C)[C@@H]5CC[C@H]4C2(C)C)OC[C@H]1OC (some centres unmarked) [drawing 937] | < 10000 |  |  |
| CO[C@@H]1[C@@H](OC)[C@H](O[C@H]2CC[C@]34C[C@]35CC[C@]3(C)C6C(O[C@@H]([C@H](OC(C)=O)C(C)(C)O)C[C@H]6C)[C@H](O)[C@@]3(C)[C@@H]5CC[C@H]4C2(C)C)OC[C@H]1OC (some centres unmarked) [drawing 938] | ≤ 1000 |  |  |
| CC(=O)O[C@@H]([C@H]1C[C@@H](C)C2C(O1)[C@H](O)[C@@]1(C)[C@@H]3CC[C@H]4C(C)(C)[C@@H](OC5CN(CC(N)=O)CCO5)CC[C@@]45C[C@@]35CC[C@]21C)C(C)(C)O (some centres unmarked) [drawing 942] |  | ≤ 1000 |  |
| CC(=O)O[C@@H]([C@H]1C[C@@H](C)C2C(O1)[C@H](O)[C@@]1(C)[C@@H]3CC[C@H]4C(C)(C)[C@H](O)CC[C@@]45C[C@@]35CC[C@]21C)C(C)(C)O (some centres unmarked) [drawing 944] | 1000 to 10000 |  |  |
| CC(=O)O[C@@H]([C@H]1C[C@@H](C)C2C(O1)[C@H](O)[C@@]1(C)[C@@H]3CC[C@H]4C(C)(C)[C@@H](OC5CN(CC(=O)N(C)C)CCO5)CC[C@@]45C[C@@]35CC[C@]21C)C(C)(C)O (some centres unmarked) [drawing 947] |  | ≤ 1000 |  |
| CC(=O)O[C@@H]([C@H]1C[C@@H](C)C2C(O1)[C@H](O)[C@@]1(C)[C@@H]3CC[C@H]4C(C)(C)[C@@H](OC(=O)c5cccnc5)CC[C@@]45C[C@@]35CC[C@]21C)C(C)(C)O (some centres unmarked) [drawing 951] |  | ≤ 1000 |  |
| CC(=O)O[C@@H]([C@H]1C[C@@H](C)[C@H]2[C@H](O1)[C@H](O)[C@@]1(C)[C@@H]3CC[C@H]4C(C)(C)C(OC(N)=O)CC[C@@]45C[C@@]35CC[C@]21C)C(C)(C)O (some centres unmarked) [drawing 964] |  | ≤ 1000 |  |
| CC(=O)O[C@@H]([C@H]1C[C@@H](C)[C@H]2[C@H](O1)C(=O)[C@@]1(C)[C@@H]3CC[C@H]4C(C)(C)[C@@H](O[C@H]5CN(CC(N)=O)CCO5)CC[C@@]45C[C@@]35CC[C@]21C)C(C)(C)O [drawing 969] |  | ≤ 1000 |  |
